Experimental data published in patent US6740637B1, “Chlorophyll and bacteriochlorophyll derivatives, their preparation and pharmaceutical compositions comprising them” (priority 1998, dated 2004).

Assays:
C57Bl mice = test: Toxicity of serine conjugates in mice in the absence of irradiation; type: in vivo, mouse; details: injections of up to 40 mg/kg body weight, up to 14 days, no irradiation
Description: (d) Toxicity of the Chl and Bchl-serine conjugates Chla-L-Ser-OMe and Bchla-L-Ser-OMe in C57Bl mice under normal housing conditions in the absence of irradiation was estimated by injection of the compound dissolved in 10% ethanol/PBS. Control mice were injected with the vehicle only. […] This dose of drug was thus far the highest used and LD50 vs. EC50 of treatment (margins of therapeutic index) have yet to be determined.

B. Subtilis = type: cell-based, Bacilus Subtilis
Description: (§1) 1. Preincubation: Bacteria or viruses were preincubated in the absence (untreated control) or presence of increasing concentration of photosensitizer for 1-2 h at room temperature or 37° C. in the dark.
(§2) 2. Illumination: One set of untreated control and one set of sensitizer treated samples were exposed to light for 5-10 min. An identical group was kept in the dark (dark control).
(§3) 3. Viability: samples of the controls and experimental groups were subjected for quantitation of survival and viability was calculated as per cent of untreated control.
(§4) The light source for illumination was a 250W halogen lamp. The light was focused on a glass support and filtered to eliminate light below 630 nm. The light intensity at the target level was 1500 μEinstein/cm^2. Illumination for Bchl-Ser against S. aureus was performed as described Example 17 herein.
(§5) Stocks of bacteria (S. aureus, B. subtilis, E. coli) were preserved on solid LB agar slants at 4° C. Two hours prior to the experiment, bacteria were transferred to liquid LB media and grown at 37° C. with continuous shaking. P. Acnes (ATCC-CR 6919) bacteria were grown on agar 1053 reinforced clostridial medium (Oxoid CM 149 ) and incubated at 37° C. […]
(§6) Aliquots (20 or 30 μl) of bacterial suspensions were plated on LB agar plates for 24 h at 37° C. […] Colonies were counted and per cent viability was calculated from untreated control. […]

E.Coli = test: PDT of bacteria with Chl-Ser, colony counting; type: cell-based, Escherichia Coli
Description: as §1, §2, §3, §4, §5, §6

[1] = system: Propionibacterium Acnes (under aerobic conditions); type: cell-based
Description: as §1, §2, §3, §4
(§7) Stocks of bacteria (S. aureus, B. subtilis, E. coli) were preserved on solid LB agar slants at 4° C. Two hours prior to the experiment, bacteria were transferred to liquid LB media and grown at 37° C. with continuous shaking. P. Acnes (ATCC-CR 6919) bacteria were grown on agar 1053 reinforced clostridial medium (Oxoid CM 149 ) and incubated at 37° C. Culturing was performed in transparent culture jars made anaerobic with a gas generator envelop containing palladium catalyst, (Gas pack Plus Anaerobic system envelopes with Palladium catalyst, Beckton Dickenson Cockesyville Md. 21030 USA) (anaerobic culture) or in the open air (aerobic culture) The bacteria were incubated for 3-4 days before the experiments were carried out.
(§8) Aliquots (20 or 30 μl) of bacterial suspensions were plated on LB agar plates for 24 h at 37° C. ((S. aureus, B. subtilis, E. coli)) or on agar 1053 reinforced clostridial medium (P.acnes). Colonies were counted and per cent viability was calculated from untreated control.
(§9) P. Acnes bacteria at an optical density of A650 nm=0.014 were diluted in PBS to 1:10^−3 and divided into test tubes. Samples of 200 μl were either non treated or incubated with increasing concentration of Chl-Ser. Samples kept in dark were rapped with aluminum foil. All the tubes were placed in the anaerobic jar and incubated for 2 h at 37° C. The anaerobic chamber was placed on the glass support of the light source and samples were illuminated for 5 min. Test tubes with bacteria and sensitizers for the aerobic experiments were left in culture incubator for 2 h and exposed to light for 5 min in the open air. Samples of 20 μl from the anaerobic and aerobic experiments were taken out and spread onto agar plates and culture under anaerobic conditions. After 4 days of anaerobic incubation at 37° C. the colonies formed were counted and per cent viable cells calculated from control. Survival curves were determined based on 6-7 experiments. PDT experiments performed on S. Aureus with Bchl-Ser were conducted as described in Example 17 herein.

[2] = system: Propionibacterium Acnes (under anaerobic conditions); type: cell-based
Description: as §1, §2, §3, §4, §7, §8, §9

[3] = system: Herpes simplex virus-1 (in infected Vero cells); test: PDT of HSV-1 in infected Vero cells, plaque assay; type: cell-based, Herpes simplex virus type 1
Description: Vero cells (Kidney African Green Monkey cells) were grown in DMEM+F12 medium buffered with 25 mM HEPES supplemented with 10% foetal bovine serum (FBS).Herpes simplex virus type 1 (HSV-1) was isolated from the eye of a patient with dentritic keratitis and maintained in culture.
(§10) For viral infection Vero cells (2×10^4/well) were cultured at 37° C. for 2 days in 24 well microplates. The culture medium was replaced with fresh medium containing 2% FBS and the cells infected with HSV-1 (200 μl) at multiplicity of infection (MOI) of 1-3. The cells were further incubated at 37° C. for 3 days. The medium was collected and centrifuged for 5 min in a clinical centrifuge to remove cells and cell debris. The concentration of viral particle was determined as described below and the suspension was aliquoted and kept at −80° C. until used.
(§11) Vero cells were inoculated with 10 fold dilutions of HSV-1 and cultured for 2 h at 37° C. The medium was then replaced with fresh DMEM containing 2% FBS and 0.7% methylcellulose and the cells were further incubated for 3 days. The overlayer was then decanted and the cells fixed and stained with crystal violet. Virus induced plaques were manually counted and plaque forming units (PFU/ml) were calculated.
Vero cells were infected with HSV-1 and incubated for four hours. Cells were then further incubated in dark for 1 h without or with Chl-Ser at the indicated concentrations. Cells were then washed three times with medium and immediately illuminated for 10 min. Subsequently the cells were incubated for 3 days for viral multiplication and media collected for quantitation. The appropriate controls described above were included in each experiment.

[4] = system: Herpes simplex virus-1 (HSV-1) (in free suspension); test: PDT of HSV-1 in suspension, plaque assay; type: cell-based, Herpes simplex virus type 1
Description: as §10, §11
HSV-1 suspended in culture medium to a concentration of 2×10^6 PFU/ml was dispensed (0.5 ml/well) into 24 well microplates and incubated in the dark for 1 h at 37° C. in the absence or presence of the indicated Chl-Ser concentrations. The experimental groups were then exposed to light for 10 min. The appropriate controls described above were included in each experiment. Viral survival was quantitated as described above.

## C=Cc1c(C)c2cc3nc(c4c5[n-]c(cc6nc(cc1[n-]2)C(C)=C6CC)c(C)c5C(=O)[C@@H]4C(=O)OC)[C@@H](CCC(=O)OC[C@H](N)C(=O)OC)[C@@H]3C.[Mg+2] [Chla-L-Ser-OMe, L-seryl Methyl Ester Chlorophyllidea]
C57Bl mice
  effect on behavior and well being of mice: no noticeable effect on the behavior and well being of the mice
B. Subtilis
  effect in dark: neither light alone nor Chl-Ser in dark showed any effect
E.Coli
  concentration up to which phototoxicity could be detected, beyond which toxic in the dark: ~5 µM
  sensitivity to Chl-Ser and light: significant resistance
[1]
  colony counts with sensitizer alone in dark: not different from those of untreated samples
[1]; aerobic conditions, light 5 min
  LD50: 10 nM
[1]; concentration range of 0.1 to 1×10^−7M, aerobic
  phototoxicity in the presence of light: dose dependent phototoxicity
[2]
  colony counts with sensitizer alone in dark: not different from those of untreated samples
[2]; anaerobic conditions, light 5 min
  LD50: 30 nM
[2]; concentration range of 0.1 to 1×10^−7M, anaerobic
  phototoxicity in the presence of light: dose dependent phototoxicity
[3]
  concentration of maximal toxicity: ~500 nM
[3]; 1 h with Chl-Ser, illuminated 10 min, read-out: half maximal effect on viral survival
  EC50: ~150 nM
[3]; same concentrations range, dark
  effect in the dark: no effect in the dark
[4]
  concentration of maximal toxicity: > 20 nM
[4]; 1 h with Chl-Ser, light 10 min, read-out: half maximal dose of sensitizer
  EC50: ~10 nM
[4]; tested concentration range, dark
  toxicity in the dark: not toxic in the dark
